From patent publication US7632814B2, “HYD1 peptides as anti-cancer agents” (University of South Florida, priority 2006, dated 2009)
Entries after “also recorded” stand apart in the source; their conditions may differ. Where no end group is shown, it is not given here. [ ]: non-standard residue; d: D form.

How the values were obtained:
8226 MM = experiment: SCID-Hu in vivo model, tumor burden by circulating lambda levels; design: species or system SCID mice
Protocol: 8226 cells (50,000 cells per mice) were engrafted into implanted human bone for 28 days. Following tumor engraftment, mice were treated with either 2 mg/Kg HYD1 or HYD1S (I.P. daily). Appropriate mice were treated with 1.5 mg/kg melphalan (mel) on day 29 and day […] (I.P. injections). Tumor burden was measured by lambda levels on day 28 and day 35 (n=3 mice per group).
Tumor burden was measured by circulating lambda levels. On day 28 (before drug treatment) measurements were recorded for each individual mouse and subsequent values obtained weekly are represented as a ratio of day 28 (day X/day 28). N=4 mice per group. HYD1 was administered I.P. at 2 mg/kg daily for 14 days (starting day 28). Melphalan was administered I.P. at 1.5 mg/kg on day 29 and 32.
SCID-Hu model. […] At 28 days, baseline tumor burden was quantified in the sera using either a lambda (8226) or kappa (H929) ELISA kit per manufacture instructions (Bethyl, Montgomery, Tex.) and mice were randomized into treatment groups. […] Tumor burden was assessed weekly by measuring kappa or lambda levels in the sera.
The SCID-Hu model consists of implanting human fetal bone into the mammary mouse fat pad of SCID mice. […] Human paraprotein can be measured in the mouse sera and levels represent a good marker for evaluating tumor burden and response to chemotherapy. […]

caspase 8 = experiment: Caspase 8 activity in H929 cells (fluorescent substrate); assay type: cell-based; conditions: 6 or 24 hrs
Protocol: Cells were treated for 6 hours (FIG. 22A) or 24 hours (FIG. 22B) and caspase 8 activity was measured using a fluorescent substrate. Shown is a representative experiment performed in triplicates. The experiment was repeated twice and similar results were obtained.
Detection of Apoptosis. A flow cytometric assay measuring Annexin V/PI staining was used to measure apoptotic cells following 24 hours of peptide exposure as previously described (Damiano J S et al. Blood, 1999; 93:1658-1667). The assay was performed in triplicate and 3 independent experiments were performed. Caspase 3 and 8 activity was measured at 6 and 24 hrs post peptide treatment per manufactures' instructions (BD Biosciences, San Jose, Calif.). The caspase assays were performed in triplicate and repeated twice.

Substance: kikmviswkg ([dK][dI][dK][dM][dV][dI][dS][dW][dK]G) [HYD1]
- tumor burden (lambda levels), combination with melphalan (8226 MM; 8226, 2 mg/kg HYD1 I.P. daily with 1.5 mg/kg melphalan I.P.): greatest reduction in tumor burden; also recorded: enhances melphalan induced cell death
- tumor burden (circulating lambda levels, day X/day 28), single agent (8226 MM; 8226, 2 mg/kg I.P. daily for 14 days starting day 28): antitumor activity was detected; also recorded: reduces 8226 MM growth in vivo
- caspase 8 activity (caspase 8): no caspase 8 activity was detected
